Among the test systems are CAKI-1; MDA-N; ACHN; OVCAR-8; HCT-116; SNB-19; OVCAR-3; PC-3; RXF 393; DU-145; NCI-H23; SK-MEL-28; K562; SNB-75; CCRF-CEM; MCF7; IGROV-1; 786-0; SW-620; SK-MEL-5.
What all share (experiment): NCI tumour cell line growth inhibition, 48 h

We go through two compounds from ChEMBL document CHEMBL1201862, “PubChem BioAssay data set” (2004).

Each structure is given as a SMILES string.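 These data come from cells grown in 96-well plates and exposed to compound for 48 hours at five concentrations. Here, GI50 denotes the concentration required for 50% inhibition of growth.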 Active and inactive are the calls of the source. No stated cut-off is given here; in the data, active = GI50 up to about 1.1 µM and inactive = higher.

As to `O=[N+]([O-])c1cc(Cl)cc2c1nc(NCCO)c1ccccc12`, the GI50 was 16500 nM (inactive) in the assay with CAKI-1; 4620 nM (inactive) in the assay with MDA-N; 6430 nM (inactive) with ACHN; 16300 nM (inactive) with OVCAR-8; 4780 nM (inactive) in the assay on HCT-116; 16100 nM (inactive) with SNB-19. Also, the GI50 in the assay with OVCAR-3 was 12100 nM (inactive); in the assay with PC-3 it was 4970 nM (inactive); in the assay on RXF 393, 6460 nM (inactive); in the assay on DU-145, 1690 nM (inactive); in the assay on NCI-H23 it was 9750 nM (inactive); in the assay with SK-MEL-28, 39500 nM (inactive). The GI50 in the assay on K562 is 4390 nM (inactive); in the assay with SNB-75, 20400 nM (inactive); in the assay on CCRF-CEM, 16700 nM (inactive); with MCF7 it was 2280 nM (inactive); in the assay with IGROV-1, 15200 nM (inactive); with 786-0, 6810 nM (inactive). The GI50 was 4500 nM (inactive) in the assay on SW-620 and 1350 nM (inactive) with SK-MEL-5.

Take `CCCCCCN(CCCCCC)C(=S)N/N=C(\C)c1ccccn1`: the GI50 in the assay on CAKI-1 is 836 nM (active); in the assay on MDA-N, 1320 nM (inactive); in the assay on ACHN, 703 nM (active); with OVCAR-8, 815 nM (active); in the assay on HCT-116, 1090 nM (active); in the assay with SNB-19 it was 1310 nM (inactive). Moreover, the GI50 was 506 nM (active) with OVCAR-3; 265 nM (active) in the assay with PC-3; 973 nM (active) in the assay on RXF 393; 1280 nM (inactive) in the assay with DU-145; 1240 nM (inactive) in the assay with NCI-H23; 1040 nM (active) in the assay with SK-MEL-28. Moreover, the GI50 in the assay on K562 is 105 nM (active); in the assay with SNB-75, 577 nM (active); in the assay with CCRF-CEM, 161 nM (active); in the assay on MCF7, 1530 nM (inactive); in the assay with IGROV-1, 955 nM (active); with 786-0 it was 971 nM (active). Further, the GI50 is 718 nM (active) in the assay with SW-620 and 1030 nM (active) in the assay with SK-MEL-5.
